# According to ChEMBL document CHEMBL3797052 (Eur J Med Chem, 2016):
# Columns and labels:
# [1] = Antiproliferative activity against human OVCAR8 cells assessed as growth inhibition after 48 hrs by sulforhodamine B assay; assay type: functional; conditions: OVCAR-8, 48 h
# [2] = Antiproliferative activity against human OVCAR3 cells assessed as growth inhibition after 48 hrs by sulforhodamine B assay; assay type: functional; conditions: OVCAR-3, 48 h
# [3] = test system: T47D; experiment: Antiproliferative activity against human T47D cells assessed as cell growth at 10^-8 M after 48 hrs by sulforhodamine B assay; assay type: functional; conditions: read-out: Activity
# [4] = test system: CCRF-CEM; experiment: Antiproliferative activity against human CCRF-CEM cells assessed as cell growth at 10^-7 M after 48 hrs by sulforhodamine B assay; assay type: functional; conditions: read-out: Activity
# [5] = Antiproliferative activity against human SW620 cells assessed as cell growth at 10^-7 M after 48 hrs by sulforhodamine B assay; assay type: functional; conditions: SW-620, 48 h, read-out: Activity
# [6] = test system: U-251; experiment: Antiproliferative activity against human U251 cells assessed as cell growth at 10^-7 M after 48 hrs by sulforhodamine B assay; assay type: functional; conditions: U-251, 48 h, read-out: Activity
# [7] = test system: MDA-MB-468; experiment: Antiproliferative activity against human MDA-MB-468 cells assessed as cell growth at 10^-4 M after 48 hrs by sulforhodamine B assay; assay type: functional; conditions: MDA-MB-468, 48 h, read-out: Activity
# [8] = test system: M14; experiment: Antiproliferative activity against human M14 cells assessed as growth inhibition after 48 hrs by sulforhodamine B assay; assay type: functional; conditions: M14, 48 h; for CC50: read-out: LC50 (the source's name)
# [9] = test system: M14; experiment: Antiproliferative activity against human M14 cells assessed as cell growth at 10^-7 M after 48 hrs by sulforhodamine B assay; assay type: functional; conditions: M14, 48 h, read-out: Activity
# [10] = Antiproliferative activity against human NCI-ADR-RES cells assessed as cell growth at 10^-7 M after 48 hrs by sulforhodamine B assay; assay type: functional; conditions: read-out: Activity
# [11] = Antiproliferative activity against human PC3 cells assessed as cell growth at 10^-7 M after 48 hrs by sulforhodamine B assay; assay type: functional; conditions: PC-3, 48 h, read-out: Activity
# [12] = Antiproliferative activity against human HCT116 cells assessed as growth inhibition after 48 hrs by sulforhodamine B assay; assay type: functional; conditions: HCT-116, 48 h
# [13] = test system: NCI-H226; experiment: Antiproliferative activity against human NCI-H226 cells assessed as growth inhibition after 48 hrs by sulforhodamine B assay; assay type: functional; conditions: NCI-H226, 48 h; for CC50: read-out: LC50 (the source's name)
# [14] = Antiproliferative activity against human HOP92 cells assessed as growth inhibition after 48 hrs by sulforhodamine B assay; assay type: functional; conditions: HOP-92, 48 h
# [15] = test system: A549; experiment: Antiproliferative activity against human A549/ATCC cells assessed as growth inhibition after 48 hrs by sulforhodamine B assay; assay type: functional; conditions: A549, 48 h; for CC50: read-out: LC50 (the source's name)
# [16] = test system: MCF7; experiment: Antiproliferative activity against human MCF7 cells assessed as growth inhibition after 48 hrs by sulforhodamine B assay; assay type: functional; conditions: MCF7, 48 h; for CC50: read-out: LC50 (the source's name)
# [17] = molecular target: CYP3A4 (Homo sapiens, UniProt P08684); experiment: Inhibition of recombinant human CYP3A4 assessed as remaining enzyme activity using CYP3A4 blue as substrate at 10 uM after 5 mins in presence of NADP by fluorescence plate reader analysis; assay type: ADME; conditions: recombinant human CYP3A4, probe CYP3A4 blue, read-out: Activity
# Chain of CYP3A4 (P08684 whole entry): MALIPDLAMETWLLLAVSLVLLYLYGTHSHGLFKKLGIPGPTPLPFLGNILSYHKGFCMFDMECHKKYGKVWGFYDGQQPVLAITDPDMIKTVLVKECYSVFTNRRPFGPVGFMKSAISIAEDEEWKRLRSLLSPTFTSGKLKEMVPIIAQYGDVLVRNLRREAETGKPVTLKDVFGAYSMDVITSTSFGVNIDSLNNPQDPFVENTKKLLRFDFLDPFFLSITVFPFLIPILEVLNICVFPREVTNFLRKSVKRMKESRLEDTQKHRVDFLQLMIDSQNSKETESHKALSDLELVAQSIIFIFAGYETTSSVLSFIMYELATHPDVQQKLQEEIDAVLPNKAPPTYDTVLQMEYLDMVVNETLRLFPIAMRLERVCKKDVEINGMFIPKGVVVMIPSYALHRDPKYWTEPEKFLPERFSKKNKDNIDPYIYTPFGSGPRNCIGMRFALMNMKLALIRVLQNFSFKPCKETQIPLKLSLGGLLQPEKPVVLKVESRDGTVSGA
# [18] = test system: EKVX; experiment: Antiproliferative activity against human EKVX cells assessed as cell growth at 10^-8 M after 48 hrs by sulforhodamine B assay; assay type: functional; conditions: read-out: Activity
# [19] = test system: NCI-H460; experiment: Antiproliferative activity against human NCI-H460 cells assessed as cell growth at 10^-8 M after 48 hrs by sulforhodamine B assay; assay type: functional; conditions: NCI-H460, 48 h, read-out: Activity
# [20] = Antiproliferative activity against human HCT15 cells assessed as cell growth at 10^-8 M after 48 hrs by sulforhodamine B assay; assay type: functional; conditions: HCT-15, 48 h, read-out: Activity
# [21] = Antiproliferative activity against human SF295 cells assessed as cell growth at 10^-8 M after 48 hrs by sulforhodamine B assay; assay type: functional; conditions: SF-295, 48 h, read-out: Activity
# [22] = Antiproliferative activity against human SF539 cells assessed as cell growth at 10^-8 M after 48 hrs by sulforhodamine B assay; assay type: functional; conditions: SF-539, 48 h, read-out: Activity
# [23] = Antiproliferative activity against human HOP62 cells assessed as cell growth at 10^-6 M after 48 hrs by sulforhodamine B assay; assay type: functional; conditions: HOP-62, 48 h, read-out: Activity
# [24] = Antiproliferative activity against human SNB75 cells assessed as cell growth at 10^-6 M after 48 hrs by sulforhodamine B assay; assay type: functional; conditions: SNB-75, 48 h, read-out: Activity
# [25] = Antiproliferative activity against human HCC2998 cells assessed as cell growth at 10^-4 M after 48 hrs by sulforhodamine B assay; assay type: functional; conditions: HCC 2998, 48 h, read-out: Activity
# [26] = Antiproliferative activity against human SW620 cells assessed as cell growth at 10^-4 M after 48 hrs by sulforhodamine B assay; assay type: functional; conditions: SW-620, 48 h, read-out: Activity
# [27] = Antiproliferative activity against human IGROV1 cells assessed as cell growth at 10^-8 M after 48 hrs by sulforhodamine B assay; assay type: functional; conditions: IGROV-1, 48 h, read-out: Activity
# [28] = Antiproliferative activity against human Caki1 cells assessed as cell growth at 10^-8 M after 48 hrs by sulforhodamine B assay; assay type: functional; conditions: CAKI-1, 48 h, read-out: Activity
# [29] = Antiproliferative activity against human PC3 cells assessed as cell growth at 10^-8 M after 48 hrs by sulforhodamine B assay; assay type: functional; conditions: PC-3, 48 h, read-out: Activity
# [30] = Antiproliferative activity against human Hs 578T cells assessed as cell growth at 10^-8 M after 48 hrs by sulforhodamine B assay; assay type: functional; conditions: read-out: Activity
# [31] = test system: ACHN; experiment: Antiproliferative activity against human ACHN cells assessed as cell growth at 10^-6 M after 48 hrs by sulforhodamine B assay; assay type: functional; conditions: read-out: Activity
# [32] = test system: SK-MEL-28; experiment: Antiproliferative activity against human SK-MEL-28 cells assessed as cell growth at 10^-4 M after 48 hrs by sulforhodamine B assay; assay type: functional; conditions: SK-MEL-28, 48 h, read-out: Activity
# [33] = Antiproliferative activity against human IGROV1 cells assessed as cell growth at 10^-4 M after 48 hrs by sulforhodamine B assay; assay type: functional; conditions: IGROV-1, 48 h, read-out: Activity
# [34] = Antiproliferative activity against human OVCAR8 cells assessed as cell growth at 10^-4 M after 48 hrs by sulforhodamine B assay; assay type: functional; conditions: OVCAR-8, 48 h, read-out: Activity
# [35] = Antiproliferative activity against human RXF393 cells assessed as cell growth at 10^-4 M after 48 hrs by sulforhodamine B assay; assay type: functional; conditions: RXF 393, 48 h, read-out: Activity
# [36] = test system: SK-MEL-5; experiment: Antiproliferative activity against human SK-MEL-5 cells assessed as growth inhibition after 48 hrs by sulforhodamine B assay; assay type: functional; conditions: SK-MEL-5, 48 h; for CC50: read-out: LC50 (the source's name)
structure (smiles),measurement,setting,value
CNC(=O)c1cc(Oc2ccc3nc(NC(=O)Nc4ccc(Cl)c(C(F)(F)F)c4)sc3c2)ccn1,GI50,[1],2.34 µM
same,LC50,[1],> 100 µM
same,TGI,[1],5.25 µM
same,GI50,[2],2.11 µM
same,TGI,[2],4.02 µM
same,growth at 0.01 µM,[3],90%
same,growth at 0.1 µM,[4],99%
same,growth at 0.1 µM,[5],101%
same,growth at 0.1 µM,[6],101%
same,growth at 100 µM,[7],-43%
same,GI50,[8],1.96 µM
same,CC50,[8],> 100 µM
same,growth at 0.1 µM,[9],92%
same,growth at 0.1 µM,[10],113%
same,growth at 0.1 µM,[11],87%
same,GI50,[12],1.89 µM
same,LC50 (concentration killing 50% of the starting cells),[12],> 100 µM
same,TGI,[12],5.39 µM
same,GI50,[13],2.69 µM
same,TGI,[13],7.47 µM
same,CC50,[13],> 100 µM
same,GI50,[14],1.15 µM
same,LC50,[14],9.12 µM
same,TGI,[14],3.24 µM
same,GI50,[15],1.93 µM
same,CC50,[15],> 100 µM
same,GI50,[16],1.72 µM
same,CC50,[16],> 100 µM
same,"activity at 5 min, 10 µM",[17],105%
same,growth at 0.01 µM,[18],97%
same,growth at 0.01 µM,[19],106%
same,growth at 0.01 µM,[20],97%
same,growth at 0.01 µM,[21],95%
same,growth at 0.01 µM,[22],97%
same,growth at 1 µM,[23],87%
same,growth at 1 µM,[24],78%
same,growth at 100 µM,[25],66%
same,growth at 100 µM,[26],42%
same,growth at 0.01 µM,[27],102%
same,growth at 0.01 µM,[28],87%
same,growth at 0.01 µM,[29],92%
same,growth at 0.01 µM,[30],92%
same,growth at 1 µM,[31],93%
same,growth at 100 µM,[32],38%
same,growth at 100 µM,[33],-35%
same,growth at 100 µM,[34],-25%
same,growth at 100 µM,[35],-78%
CNC(=O)c1cc(Oc2ccc(NC(=O)Nc3ccc(Cl)c(C(F)(F)F)c3)cc2)ccn1 [SORAFENIB],GI50,[1],2.51 µM
same,TGI,[1],10 µM
same,GI50,[2],3.16 µM
same,TGI,[2],12.6 µM
same,TGI,[36],3.16 µM
same,CC50,[36],5.01 µM
same,GI50,[8],2 µM
same,TGI,[8],5.01 µM
same,CC50,[8],25.1 µM
same,TGI,[12],3.98 µM
same,GI50,[13],2 µM
same,TGI,[13],7.94 µM
same,CC50,[13],31.6 µM
same,TGI,[14],5.01 µM
same,GI50,[15],3.16 µM
same,TGI,[15],12.6 µM
same,CC50,[15],63.1 µM
same,GI50,[16],2.51 µM
same,TGI,[16],7.94 µM
same,CC50,[16],50.1 µM
CNC(=O)c1cc(Oc2ccc3nc(NC(=O)Nc4cc(C(F)(F)F)cc(C(F)(F)F)c4)sc3c2)ccn1,GI50,[1],1.33 µM
same,LC50,[1],5.47 µM
same,TGI,[1],2.69 µM
same,GI50,[2],1.03 µM
same,LC50,[2],5.04 µM
same,TGI,[2],2.27 µM
same,growth at 0.01 µM,[3],85%
same,growth at 0.1 µM,[4],114%
same,growth at 0.1 µM,[5],113%
same,growth at 0.1 µM,[6],106%
same,growth at 100 µM,[7],-75%
same,GI50,[36],0.593 µM
same,TGI,[36],2.09 µM
same,CC50,[36],5.87 µM
same,GI50,[8],1.5 µM
same,TGI,[8],3.22 µM
same,CC50,[8],6.9 µM
same,growth at 0.1 µM,[9],104%
same,growth at 0.1 µM,[10],98%
same,growth at 0.1 µM,[11],99%
same,GI50,[12],1.12 µM
same,LC50 (concentration killing 50% of the starting cells),[12],5.37 µM
same,TGI,[12],2.46 µM
same,GI50,[13],1.45 µM
same,TGI,[13],3.57 µM
same,CC50,[13],8.79 µM
same,GI50,[14],0.301 µM
same,LC50,[14],5.14 µM
same,TGI,[14],0.949 µM
same,GI50,[15],1.3 µM
same,TGI,[15],2.67 µM
same,CC50,[15],5.51 µM
same,GI50,[16],1.05 µM
same,TGI,[16],2.93 µM
same,CC50,[16],8.23 µM
same,"activity at 5 min, 10 µM",[17],50.6%
same,growth at 0.01 µM,[18],81%
same,growth at 0.01 µM,[19],102%
same,growth at 0.01 µM,[20],88%
same,growth at 0.01 µM,[21],87%
same,growth at 0.01 µM,[22],96%
same,growth at 1 µM,[23],58%
same,growth at 1 µM,[24],50%
same,growth at 100 µM,[25],-74%
same,growth at 100 µM,[26],-71%
same,growth at 0.01 µM,[27],103%
same,growth at 0.01 µM,[28],91%
same,growth at 0.01 µM,[29],101%
same,growth at 0.01 µM,[30],96%
same,growth at 1 µM,[31],32%
same,growth at 100 µM,[32],-70%
same,growth at 100 µM,[33],-60%
same,growth at 100 µM,[34],-96%
same,growth at 100 µM,[35],-70%
